{"source": "patent US20140072557A1", "about": "“MEDICINAL AGENT FOR SUPPRESSING MALIGNANT TUMOR METASTASIS” (priority 2011, published 2014)", "key": {"A549 cells [1]": {"test_system": "A549 cells", "experiment": "Intracellular cGMP level in A549 cells on natriuretic peptide stimulus", "type": "cell-based", "details": "1×10^−11 M to 1×10^−6 M, 10 minutes", "procedure": "The A549 cells were cultured in a 24-well dish at 4×10^4 cells/well, and the culture medium was replaced with DMEM culture medium free from FCS the next day. To the culture medium, solutions of hANP, hBNP, and hCNP (final concentration: ten-fold serial dilution from 1×10^−11 M to 1×10^−6 M, the same amount of physiological saline was used as a control) were separately added. After 10 minutes passed, 400 μL of cooled 70% ethanol (containing 0.1 N hydrochloric acid) was added, and ultrasonication was performed for a short time. The treated solution was lyophilized, and the cGMP level was measured using Cyclic GMP Assay kit (made by Yamasa Corp.)."}, "A549 cells [2]": {"test_system": "A549 cells", "experiment": "Motility, wound healing assay, A549 cells", "type": "cell-based", "details": "1 μM hANP, TGF-β1 1 ng/mL, 24 hours", "procedure": "Using a 6-well dish, the A549 cells were cultured at 4×10^5 cells/well, and the culture medium was replaced with DMEM culture medium free from FBS the next day. After 24 hours of culture, the cells were divided into 3 groups (the control group, the TGF-(31 group, and the TGF-β1+hANP group), and used in the following experiment.\nTo the culture medium for the TGF-β1+hANP group, the hANP solution was added so that the final concentration of hANP would be 1 μM. For the control group and the TGF-β1 group, the same amount of physiological saline was added to the culture medium. Two hours later, a wound was created at the center of each well with the use of a 200 μL-pipette tip. Immediately after the wound creation, a photograph of each well was taken under a microscope (FIG. 7A). To the TGF-β+hANP group and the TGF-β1 group, TGF-β1 was added so that the final concentration would be 1 ng/mL. After 24-hour culture, a photograph of the same part was taken again to calculate the average ratio of the wounded area width difference between immediately after the wound creation and after 24-hour culture (migration ratio: % wounded area filled) by the following formula.\nMigration ratio (%)=(initial wound width−wound width after 24-hour culture)/(initial wound width)×100"}, "A549 cells [3]": {"test_system": "A549 cells", "experiment": "Invasion ability, Matrigel-coated Boyden chamber assay, A549 cells", "type": "cell-based", "details": "1 μM hANP, TGF-β1 1 ng/mL, 40 hours", "procedure": "Using a 6-well dish, the A549 cells were cultured at 1×10^5 cells/well, and the culture medium was replaced with DMEM culture medium free from FBS the next day. After 24 hours of culture, the cells were divided into 3 groups (the control group, the TGF-β1 group, and the TGF-β1+hANP group), and used in the following experiment.\nTo the culture medium for the TGF-β1+hANP group, the hANP solution was added so that the final concentration of hANP would be […] the control group and the TGF-β1 group, the same amount of physiological saline was added to the culture medium. After 2 hours from the addition, the Boyden chamber assay was performed as follows. Cell culture inserts (8.0 μm pore size, made by Becton, Dickinson and Company) coated with Matrigel were prepared beforehand by placing cell culture inserts on a 6-well dish, adding 300 μL each of a […] Matrigel solution (adjusted with PBS) thereonto, and air drying the inserts.\nDMEM culture medium free from FBS for the control group, the same DMEM culture medium containing TGF-β1 (final concentration: 1 ng/mL) for the TGF-β1 group, and the same DMEM culture medium containing hANP (final concentration: 1 μM) and TGF-β1 (final concentration: 1 ng/mL) for the TGF-β1+hANP group were separately added to each well of a 6-well dish in an amount of 1.5 mL. […]"}, "A549 cells [4]": {"test_system": "A549 cells", "experiment": "Apoptosis induction, cell viability by trypan blue staining, A549 cells", "type": "cell-based", "details": "hANP 1, 5, 10 μM added 4 times, 48 hours", "procedure": "Using a 96-well dish, the A549 cells were cultured at 1×10^4 cells/well. The culture medium was replaced with DMEM culture medium free from FBS the next day, and after 24-hours culture, the following experiment was conducted.\nTo the culture medium, a hANP solution prepared by serial dilution was added so that the final concentration of hANP would be 1, 5, or 10 μM (for the control group, the same amount of physiological saline was added). Further, 2, 4, and 6 hours later, the same amounts of the hANP solutions at the same concentrations were added (for the control group, the same amount of physiological saline was added) (4 times in total). 48 hours later, trypan blue staining was performed and the cell viability (number of living cells/total number of all cells) was determined with the use of an automatic cell counter Countess (registered trademark) (Invitrogen)."}, "HUVEC cell layer": {"test_system": "HUVEC cell layer", "experiment": "Implantation of A549 cells into HUVEC cell layer", "type": "cell-based, human", "details": "VEGF+hANP (1 μM)", "procedure": "Normal human umbilical cord vein endothelial cells (HUVEC) were purchased from Takara Bio, Inc. Medium preparation and subculture were performed according to the package insert. Nuclear staining was performed using TOPRO3 (purchased from Invitrogen), and immunostaining of VE-cadherin was performed using anti-VE-cadherin antibody (purchased from BD Biosciences). p After culturing the HUVEC to confluent and replacing the medium with a serum free medium, nuclear staining and immunostaining using anti-VE-cadherin antibody were performed in the presence or absence of VEGF and hANP to observe the expression of VE-cadherin.\nIn the presence of VEGF alone, the expression of VE-cadherin decreased, and intercellular gaps were observed. […] Further, in the presence of VEGF alone, when A549 cells were added onto the HUVEC cell layer, implantation of the A549 cells into the HUVEC cell layer was observed."}, "A549 cells [5]": {"test_system": "A549 cells", "experiment": "Mouse tail vein injection metastasis test, GFP-labeled A549 cells", "type": "in vivo", "details": "hANP 0.5 μg/kg/min by subcutaneous osmotic pump for 4 weeks, observed 8 weeks after injection, Balb/c (nu/nu) mice", "procedure": "Six-week-old male Balb/c (nu/nu) mice were used (purchased from Japan SLC, Inc.).\nThe osmotic pumps used were MODEL2004 (for 28-day administration) made by ALZET (Cupertino, Calif.).\nMice into which an osmotic pump containing 0.9% physiological saline was subcutaneously implanted in the back were assigned to the control group. Similarly, mice into which an osmotic pump containing hANP prepared for administration at 0.5 μg/kg/min was subcutaneously implanted were assigned to the ANP group. Injection of a tumor cell suspension was performed on the day after the osmotic pump implantation.\nAs the tumor cells, A549 cell line labeled with GFP (Green Fluorescent Protein) was purchased from Wako Pure Chemical Industries, Ltd., and cultured in RPMI1640 (Life Technologies Corp.) containing 10% FCS under 5% CO2 at 37° C. The cells in a subconfluent state were treated with EDTA-trypsin, centrifuged, and then suspended in serum free DMEM so as to be 1×10^7 cells/mL. The A549 cell suspension (100 μL/body, 1×10^6 cells) was injected to the tail vein of the mice."}}}
{"smiles": "CC[C@H](C)[C@@H]1NC(=O)[C@H](CCCNC(=N)N)NC(=O)[C@H](CC(=O)O)NC(=O)[C@H](CCSC)NC(=O)[C@H](CCCNC(=N)N)NC(=O)CNC(=O)CNC(=O)[C@H](Cc2ccccc2)NC(=O)[C@@H](NC(=O)[C@H](CO)NC(=O)[C@H](CO)NC(=O)[C@H](CCCNC(=N)N)NC(=O)[C@H](CCCNC(=N)N)NC(=O)[C@H](CC(C)C)NC(=O)[C@@H](N)CO)CSSC[C@@H](C(=O)N[C@@H](CC(N)=O)C(=O)N[C@@H](CO)C(=O)N[C@@H](Cc2ccccc2)C(=O)N[C@@H](CCCNC(=N)N)C(=O)N[C@@H](Cc2ccc(O)cc2)C(=O)O)NC(=O)CNC(=O)[C@H](CC(C)C)NC(=O)CNC(=O)[C@H](CO)NC(=O)[C@H](CCC(N)=O)NC(=O)[C@H](C)NC(=O)CNC1=O", "note": "[hANP, carperitide]", "values": [{"measurement": "intracellular cGMP level", "setting": "A549 cells [1]", "result": "increased the intracellular cGMP level of the A549 cells in a concentration-dependent manner"}, {"measurement": "motility (migration ratio, % wounded area filled)", "setting": "A549 cells [2]", "result": "significantly suppressed"}, {"measurement": "cell invasion via the Matrigel layer", "setting": "A549 cells [3]", "result": "significantly suppressed"}, {"measurement": "number of living cancer cells (cell viability)", "setting": "A549 cells [4]", "result": "decreased in a hANP-concentration-dependent manner"}, {"measurement": "implantation of A549 cells into the HUVEC cell layer", "setting": "HUVEC cell layer", "result": "this phenomenon of implantation was suppressed"}, {"measurement": "lung metastasis (number of nodules)", "setting": "A549 cells [5]", "result": "significantly suppressed"}]}
